Measurements: patent US20070004636A1, “Method of degrading transcriptional factors of saccharometabolism-associated gene, method for inhibiting the degradation, and agent for inhibiting degradation and degradation inhibitor” (priority 2002, published 2007)

Assays:
Type in all cases: cell-based
human HNF-4α = experiment: intracellular HNF-4α degradation test by adding calcium ionophore, HEK293T cells; conditions: 10 μg/mL, 3 hours, nuclear and cytoplasmic fraction
Procedure: After culturing a total number of 0.7×10^6 HEK293T cells for 22 hours at 37° C. under the presence of 5% CO2 (Petri dish with 60 mm diameter), 2 μg of HNF-4α expression plasmid (see Example 2) was transfected thereto using the FuGENE 6 Transfection Reagent. After two days of culturing, the culture medium was replaced with a medium that contained 10 μg/mL of ionophore A23187 (4-bromo-calcium ionophore A23187, Sigma Chemical Co.), and the culturing was continued for 3 hours. For a negative control group, the culture medium was replaced with a medium to which dimethylsulfoxide (DMSO) was added instead of the ionophore. After culturing for the pre-determined time, the cells were washed with cold PBS (−), suspended in 300 μl of hypotonic cell lysis buffer (10 mM HEPES, pH 7.5/10 mM MgCl2/42 mM KCl/1 mM PMSF), and left to stand on ice for 20 mins. The cells were disrupted with a homogenizer, and then centrifuged at 4° C. for 10 minutes at 600 g, to collect the resulting supernatant as a cytoplasmic fraction and the precipitation as a nuclear fraction. The nuclear fraction was further suspended in solution comprising 2×PBS/1% Nonidet P-40/0.1% SDS, and disrupted by ultrasonication. An equal volume of 2×SDS sample buffer was added thereto, heated for 5 minutes, and then subjected to 5-20% SDS-PAGE for separation. Detection of HNF-4α was conducted by the same method as in Example 4.

human HNF-1α = experiment: intracellular HNF-1α degradation test by adding calcium ionophore, HEK293T cells; conditions: 10 μg/mL, 4 hours
Procedure: After culturing a total number of 0.8×10^6 HEK293T cells for 5 hours at 37° C. under the presence of 5% CO2 (Petri dish with 60 mm diameter), 2 μg of an HNF-1α expression plasmid (see Example 7) was transfected thereto using the FuGENE 6 Transfection Reagent. After two days of culturing, the culture medium was replaced with a medium containing 10 μg/mL of ionophore A23187 (Sigma Chemical Co.) and 0.2% DMSO, and then the culturing was continued for 4 hours. For a negative control group, the culture medium was replaced with a medium containing 0.2% DMSO. After culturing for the pre-determined time, the cells were washed with cold PBS (−), suspended in 350 μl of hypotonic cell lysis buffer, and then left to stand on ice for 20 mins. The cells were disrupted with a homogenizer, and then centrifuged at 4° C. for 10 minutes at 600 g to collect the resulting supernatant as a cytoplasmic fraction and the precipitation as a nuclear fraction. The nuclear fraction was further suspended in solution comprising 2×PBS/1% Nonidet P-40/0.1% SDS, and disrupted by ultrasonication. The protein concentration of cell fractions was determined with Coomassie Plus Protein Assay Reagent Kit (Pierce Chemical Corp.). Each of the prepared samples was added to an equal volume of 2×SDS sample buffer, heated for 5 minutes, and then subjected to 5-20% SDS-PAGE for separation. […]

human IPF-1 = experiment: intracellular IPF-1 degradation test by adding calcium ionophore, HEK293T cells; conditions: 10 μg/mL, 4 hours
Procedure: After culturing a total number of 0.5×10^6 HEK293T cells for 24 hours at 37° C. under the presence of 5% CO2 (Petri dish with 60 mm diameter), 2 μg of IPF-1 expression plasmid (see Example 10) was transfected thereto using the FuGENE 6 Transfection Reagent. After two days of culturing, the culture medium was replaced with a medium containing 10 μg/mL of ionophore A23187 (Sigma Chemical Co.), and the culturing was continued for further 4 hours. For a negative control group, the culture medium was replaced with a medium containing 0.2% DMSO. After culturing for the pre-determined time, the cells were washed with cold PBS (−), suspended in 350 μl of hypotonic cell lysis buffer, and then left to stand on ice for 20 mins. The cells were disrupted with a homogenizer, and then centrifuged at 4° C. for 10 minutes at 600 g to collect the supernatant as a cytoplasmic fraction and the precipitation as a nuclear fraction. The nuclear fraction was further suspended in solution comprising 2×PBS/1% Nonidet P40/0.1% SDS, and disrupted by ultrasonication. The nuclear fraction and cell fraction were added to an equal volume of 2×SDS sample buffer, heated for 5 minutes, and then subjected to 5-20% SDS-PAGE for separation. Detection of IPF-1 was conducted by the same method as in Example 10.

4-bromo-calcium ionophore A23187
observed: degradation of HNF-4α by adding ionophore (human HNF-4α) | degradation of HNF-1α by addition of ionophore (human HNF-1α) | degradation of IPF-1 by addition of ionophore (human IPF-1)
